row,Structure (SMILES),melting point [°C]
1,C=CCC1COC(CC)(CC(=O)O)c2[nH]c3c(C)c(F)ccc3c21 (stereo not drawn),138 to 140
2,O=[N+]([O-])c1ccc(OC23CC4CC(CC(C4)C2)C3)cc1,132 to 134
3,CN(C)S(=O)(=O)c1cc(-c2ccccc2)ccc1S(N)(=O)=O,197 to 200
4,CN(C=O)C1(C(=O)O)CC1,210
5,COc1ccc2c(c1OC)CCC2C(=O)O (stereo not drawn),128 to 130
6,CN1CCCCCCC1=NC(=S)Nc1ccccc1,123 to 125
7,CC(C)(C)OC(=O)Cc1ccc(O)cc1,95 to 96
8,COc1ccc2c(c1)NC(c1ccccc1)CO2 (stereo not drawn),79 to 81
9,O=C(Cc1ccccc1)N1CCN(Cc2n[nH]c3cc(F)ccc23)CC1,173 to 174
10,CCOc1cccnc1CSCCNC(=C[N+](=O)[O-])SC,126 to 127
11,CSC1=Nc2ccccc2C(c2ccccc2)=NC1,167 to 168
12,CSc1nc(N)ncc1S(=O)(=O)NC(=O)NC(C)C,190 to 192
13,CC(Cn1ccnn1)n1nnc2cc3c(=O)n(C(C)Cn4ccnn4)nnc3cc2c1=O (stereo not drawn),192 to 195
14,CC1(C)NCC(c2ccccc2)=NO1,93 to 95
15,O=C(NCC1Cc2ccc3c(c2O1)CCC3)OCc1ccccc1 (stereo not drawn),99 to 101
16,OC1(c2ccc(-c3ccccn3)cc2)CN2CCC1CC2 (stereo not drawn),237 to 238
17,CCOc1cc(OCC)c([N+](=O)[O-])c(OCC)c1[N+](=O)[O-],105
18,COc1ccc([N+](=O)[O-])c(C=CN2CCCC2)c1Cl,89 to 92
19,CCCc1c(CSc2ncccc2O)ccc(C(C)=O)c1O,126
20,O=C(NCCO)c1csc(C(=O)NCCO)n1,155 to 158

row,Structure (SMILES),melting point [°C]
1,COC(=O)c1ccc(Cl)c(-n2nnn(C)c2=O)c1Cl,135 to 137
2,Brc1ccc2c(c1)COCO2,43 to 47
3,O=C1CCCc2nc3ccccc3c(NCc3ccccc3F)c21,164
4,CCC1CC2=CCCCC2C2CCC3(C)C(O)CCC3C12 (stereo not drawn),155 to 157
5,CC(=O)NCc1cccc2c1C(=O)N(C1CCC(=O)NC1=O)C2=O (stereo not drawn),177 to 179
6,OC/C(=C/c1ccccc1)c1cccs1,64 to 65
7,N#CSc1nsnc1Cl,63 to 65
8,CCOC(=O)C1Cc2cc(OC)c(OC)cc2C1=O (stereo not drawn),140 to 141
9,C=C(C)C(=O)c1cc(O)c(O)c([N+](=O)[O-])c1,98 to 102
10,O=[N+]([O-])c1ccc2[nH]c(C(F)(F)F)cc2c1,190 to 193
11,CCCCc1nn(-c2ccc(C(F)(F)F)cn2)cc1CCCO,93 to 94
12,CC12CCC(C1)C1(C)Oc3ccccc3C21C (stereo not drawn),68
13,CC(=O)n1cc(Cn2ccnc2)c2ccccc21,122
14,CCOC(=O)c1cc(OC)c2oc(C)c(C)c2c1,67 to 68
15,Cc1ccc(C2(O)CCN(CCCc3nnc4n3CCCCC4)CC2)cc1,160 to 161
16,COC(=O)C1C=CCn2c(=O)n(CO)c(=O)n21 (stereo not drawn),123 to 125
17,CCC(=O)NC1C=CCCCC1 (stereo not drawn),84
18,COC(=O)C1(F)C(=O)N(C)C(=O)NC1O (stereo not drawn),160 to 161
19,CCOC(=O)C(=CNc1nnn[nH]1)C(=O)c1cc(F)c(Cl)nc1Cl,150 to 152
20,Cc1cccc(C)c1CNc1cc(Br)cc2c1nc(N(C)C)n2C,157 to 158

# The next lines start with the values.
row,melting point [°C],Structure (SMILES)
1,87 to 88,COC1=C(OC)C(=O)C(CCCCCCc2ccc(O)cc2)=C(C)C1=O
2,178,CC(C)Cn1c(=O)n(C)c(=O)c2cn(Cc3cccc4ccccc34)nc21
3,137 to 138,COc1cc(N)c(Cl)cc1C(=O)NCC1CCN(CCCCCCC(=O)c2ccc(Cl)cc2)CC1
4,79 to 80,COC(=O)c1ccc(OC2=C3N=C4CCCCC4=C3C(Cc3ccc(OC)cc3)C=C2)o1 (stereo not drawn)
5,155 to 156,CCOC(=O)c1ccc(NC(=S)NCCn2c(C)ccc2C)cc1
6,118 to 119,COc1ccccc1CNC(=O)C(=O)NCCc1ccccn1
7,72 to 74,CCCCCCC(Oc1c(Br)cc(-c2ccc(-c3c(Cc4ccccc4)oc4ccccc34)cc2)cc1Br)C(=O)O (stereo not drawn)
8,216 to 217,CN(C)Cc1ccc(-c2ccc(S(=O)(=O)n3ccc(C=CC(=O)NO)c3)cc2)cc1
9,179 to 181,CCOC(=O)c1cc2c(C)c(-c3ccc(Cl)cc3)c(=O)oc2nc1C(=O)OCC
10,258 to 260,COc1ccc(Cn2nc(NC(=O)c3cc(NC(=O)c4cc([N+](=O)[O-])nn4Cc4ccc(OC)cc4)nn3Cc3ccc(OC)cc3)cc2C(=O)O)cc1
11,138,CN(C)CC(O)COc1ccc(C=CC(=O)N2CCc3c([nH]c4ccccc34)C2c2ccc3c(c2)CCO3)cc1 (stereo not drawn)
12,128 to 130,COc1ccc(-c2ccc(Br)cc2N)cc1
13,180 to 183,O=C(CC(C(=O)O)c1ccccc1)Nc1cc(Cc2n[nH]c(=O)c3ccccc23)ccc1F (stereo not drawn)
14,159 to 161,CC(=O)c1ccc(N(C)Cc2ccccc2)c(S(N)(=O)=O)c1
15,227 to 229,CCOC(=O)c1cn(CCF)c2nc(N3CCC(N(C)C(C)=O)C3)c(F)cc2c1=O (stereo not drawn)
16,168 to 172,O=C(O)C1(N(Cc2noc(=O)[nH]2)S(=O)(=O)c2ccc(-c3ccc(Cl)cc3)cc2)CC1c1ccccc1 (stereo not drawn)
17,93 to 96,CO[C@]1(c2cccc(Sc3ccc4c(ccc(=O)n4C)c3)c2)CCO[C@@H](C)C1

row,melting point [°C],Structure (SMILES)
1,139,[N-]=[N+]=NC1CC(n2cc(C(I)=CI)c(=O)[nH]c2=O)OC1COC(c1ccccc1)(c1ccccc1)c1ccccc1 (stereo not drawn)
2,221 to 222,CCCc1ccnc2c(=O)[nH]c(-c3cc(S(=O)(=O)NCCN4CCNC4=O)ccc3OCC)nc12
3,158 to 159,Cc1c(NC(=O)CC(C)(C)C)cc2c(c1C)OC(C)(C)C2CCc1ccccc1 (stereo not drawn)
4,85 to 87,CCOC(=O)C=Cc1ccc2c(c1)ncn2-c1cccc(N2CCCCC2)c1
5,50.5 to 52.5,CCOC(=O)CCc1ccc(C(=O)Cc2ccccc2)cc1
6,158 to 159,CCCc1ccc(S(=O)(=O)NCC2CCN(S(=O)(=O)c3ccc(CCC)cc3)CC2)cc1
7,163 to 173,CCOc1ccc(N(c2ccccc2)C2(c3ccc(N(CC)Cc4ccccc4)cc3)OC(=O)c3ccccc32)cc1 (stereo not drawn)
8,92 to 97,CCCc1c(OCCCOc2ccc(-c3c[nH]c(SCc4ccccc4)n3)c(OC)c2CCC)ccc2c1OC(C(=O)O)CC2 (stereo not drawn)
9,196 to 197,CCCOC(=O)Nc1cn2nc(OCc3cc(C)ccc3C)ccc2n1
10,137 to 138,COc1ccnc(CSc2nc3c(C)c(OC(F)F)c(C)cc3[nH]2)c1OC
11,123 to 124,Cc1ccc(S(=O)(=O)OCCCC(O)c2cccc3c(=O)c(C)c(-c4ccccc4)oc23)cc1 (stereo not drawn)
12,148,CCCCc1nc(SC)cn1Cc1ccc(-c2ccccc2S(=O)(=O)N=CN(C)C)cc1
13,97 to 98,Nc1ccc(Cn2cc(C(F)(F)F)ccc2=O)cc1
14,186 to 189,COC(=O)C1=C(C)Nc2c(c(-c3ccccc3)nn2-c2ccccc2)C1c1cccc([N+](=O)[O-])c1 (stereo not drawn)
15,113 to 116,Cc1cc(C(=O)c2ccc(Cl)cc2)ccc1N
16,109 to 110,N[C@@H](Cc1ccc(CC(F)(F)C(F)(F)F)cc1)[C@H](O)c1cccc(Cl)c1 (racemic)

# From a melting point compilation (Tetko et al.; mined from patent text by program, amines drawn as free bases though some values may be those of a salt)
